{"source": "patent US20240366661A1", "about": "“COMPOSITIONS FOR AND METHODS OF TREATING A SUBJECT HAVING INFLAMMATION” (The George Washington University, priority 2022, published 2024)", "key": {"[1]": {"system": "murine bone marrow derived macrophages (BMDMs)", "assay": "QRT-PCR of M2 markers in bone marrow derived macrophages pre-treated with HDAC11 inhibitor and polarized to M2", "assay_type": "cell-based", "conditions": "inhibitor 5 μM pre-treatment overnight prior to M2 polarization", "protocol": "(§1) Upon treatment with M-CSF, bone marrow-derived monocytes (BMDM) differentiate into naïve (M0) macrophages. In the case of peritoneal exudate macrophages (PEMs), naïve M0 macrophages are isolated from the peritoneal cavity. These M0 macrophages are pre-treated with HDAC11 inhibitor followed by polarization to M2 macrophages with IL4 and IL13 cytokines or other cytokine mix including but not limited to IL10 and TGF beta.\nNext, HDAC11 inhibitors were evaluated for their ability to modulate the function of macrophages. […] These commercially available HDAC11 inhibitors were tested on macrophages in-vitro to identify their macrophage modulatory properties. Next, BMDMs were isolated and polarized towards M2 phenotype with HDAC11 inhibitor pre-treatment overnight."}, "[2]": {"system": "peritoneal exudated macrophages (PEMs)", "assay": "ELISA of IL-10 and TGFβ cytokines in peritoneal exudate macrophages treated with HDAC11 inhibitor", "assay_type": "cell-based", "conditions": "dose-dependent", "description": "as §1, with “beta. […] A chromatin immunoprecipitation assay further confirmed that HDAC11 binded preferentially to the distal promoter region of IL10, and negatively regulated its gene expression (FIG. 1B). […] This confirmed that the HDAC11 inhibitor was highly specific, and that it could recapitulate the effect of HDAC11 genetic knock down.” for “beta.”\nTherefore, HDAC11 inhibitor treated M2 macrophages as a cell therapy and or topical HDAC11 inhibitor application are excellent to treat inflammatory diseases."}, "[3]": {"biological_target": "T1, HDAC11 (Homo sapiens, UniProt Q96DB2)", "T1 sequence (Q96DB2 1-347)": "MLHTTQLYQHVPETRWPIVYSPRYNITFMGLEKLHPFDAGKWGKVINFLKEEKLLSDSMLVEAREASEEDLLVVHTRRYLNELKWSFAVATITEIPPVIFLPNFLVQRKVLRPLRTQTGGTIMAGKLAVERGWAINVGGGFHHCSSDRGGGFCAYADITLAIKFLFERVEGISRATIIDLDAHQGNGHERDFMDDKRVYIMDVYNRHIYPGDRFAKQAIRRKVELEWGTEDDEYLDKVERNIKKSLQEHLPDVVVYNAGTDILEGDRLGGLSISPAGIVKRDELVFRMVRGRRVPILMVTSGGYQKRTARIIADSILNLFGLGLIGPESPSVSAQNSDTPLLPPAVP", "conditions": "literature statement; cited from earlier work"}}, "note": "Entries after “also recorded” stand apart in the source; their conditions may differ."}
{"smiles": "CC1(C)c2cccc(C(=O)NO)c2CN1c1cnc(C(F)(F)F)cn1", "note": "[FT895]", "values": [{"measurement": "Arg1 expression", "setting": "[1]", "result": "did not affect"}, {"measurement": "Fizz1 expression", "setting": "[1]", "result": "further enhanced the expression of Fizz1"}, {"measurement": "Mrc1 expression", "setting": "[1]", "result": "did not affect"}]}
{"smiles": "COc1ccccc1NC(=O)NCc1ccc(C(=O)NO)cc1", "note": "[elevenostat]", "values": [{"measurement": "expression of IL-10 cytokine", "setting": "[2]", "result": "increased the expression of IL-10 and TGFβ cytokines in a dose-dependent manner; also recorded: dose dependent increase"}, {"measurement": "expression of TGFβ cytokine", "setting": "[2]", "result": "increased the expression of IL-10 and TGFβ cytokines in a dose-dependent manner; also recorded: dose dependent increase"}]}
{"smiles": "CCCCCCCCCCCCCCCCNNC(=O)c1cccs1", "note": "[SIS17]", "values": [{"measurement": "inhibition of HDAC11 (demyristoylation activity; potency and selectivity)", "setting": "[3]", "result": "inhibit the demyristoylation activity of HDAC11 without inhibiting other HDACs"}, {"measurement": "Arg1 expression", "setting": "[1]", "result": "increased the expression of Arg1 and Mrc1"}, {"measurement": "Fizz1 expression", "setting": "[1]", "result": "further enhanced the expression of Fizz1"}, {"measurement": "Mrc1 expression", "setting": "[1]", "result": "increased the expression of Arg1 and Mrc1"}]}
